Laboratory results taken from US4355040A, “Hypotensive imidazole-5-acetic acid derivatives” (Takeda Chemical Industries, Ltd., priority 1979, dated 1982).
Read-outs that look alike come from different tables or passages of the source.

Tests used:
[1] = tested on: angiotensin II-induced elevation of blood pressure; experiment: Inhibitory activity against angiotensin II-induced elevation of blood pressure in rats; type: in vivo, Male SD rats; conditions: for inhibition in vivo at 1 mg/kg / inhibition in vivo at 0.5 mg/kg / inhibition in vivo at 0.03 mg/kg / inhibition in vivo at 3 mg/kg / inhibition in vivo at 0.1 mg/kg / inhibition in vivo at 0.3 mg/kg: Rattus norvegicus, iv; for inhibition in vivo at 1 mg/kg: 1.0 mg/kg intravenously; for inhibition in vivo at 0.5 mg/kg: 0.5 mg/kg intravenously; for inhibition in vivo at 0.03 mg/kg: 0.03 mg/kg intravenously; for inhibition in vivo at 3 mg/kg: 3.0 mg/kg intravenously
[2] = tested on: angiotensin II (aortic blood vessel of rabbits); experiment: Antagonistic effect on angiotensin II (A II)-induced tension, aortic blood vessel of rabbits; type: cell-based; conditions: Oryctolagus cuniculus, 0.25 h, A II 4×10^-9 M, 15 minutes
Source text: Antagonistic effect of the compound (I) of the present invention on angiotensin II (hereinafter referred to briefly as "A II") (with aortic blood vessel of rabbits)
The blood-vessel preparation and reaction were done in accordance with the method as described in "European Journal of Pharmacology", 18, 316 (1972). […] [formula] where; T1 =Change in isometric tension of the blood vessel brought about by A II without a test drug substance (g)

[3] = 10 min, A II 20 ng/kg/min, 10 min, read-out: Inhibition (%), after 10 min.
[4] = 0.5 h, A II 20 ng/kg/min, 30 min, read-out: Inhibition (%), after 30 min.
[5] = 1.5 h, A II 20 ng/kg/min, 90 min, read-out: Inhibition (%), after 90 min.
[6] = 10 min, 0.1 mg/kg intravenously, A II 20 ng/kg/min, 10 min, read-out: Inhibition (%), after 10 min.
[7] = 0.5 h, 0.1 mg/kg intravenously, A II 20 ng/kg/min, 30 min, read-out: Inhibition (%), after 30 min.
[8] = 1.5 h, 0.1 mg/kg intravenously, A II 20 ng/kg/min, 90 min, read-out: Inhibition (%), after 90 min.
[9] = 10 min, 0.3 mg/kg intravenously, A II 20 ng/kg/min, 10 min, read-out: Inhibition (%), after 10 min.
[10] = 0.5 h, 0.3 mg/kg intravenously, A II 20 ng/kg/min, 30 min, read-out: Inhibition (%), after 30 min.
[11] = 1.5 h, 0.3 mg/kg intravenously, A II 20 ng/kg/min, 90 min, read-out: Inhibition (%), after 90 min.
[12] = 10 min, read-out: Inhibition (%), after 10 min.
[13] = 0.5 h, read-out: Inhibition (%), after 30 min.
[14] = 1.5 h, read-out: Inhibition (%), after 90 min.

In the case of O=C(O)Cc1c(Cl)nc(-c2ccccc2)n1Cc1ccccc1Cl [drawing 134], the inhibition in vivo at 1 mg/kg [1, 3] is reported as 11.8 ± 1.8%, the inhibition in vivo at 1 mg/kg [1, 4] is reported as 36.5 ± 4.5% and the inhibition in vivo at 1 mg/kg [1, 5] is reported as 32.3 ± 7%.
Nc1ccc(-c2nc(Cl)c(CC(=O)O)n2Cc2ccccc2)cc1 [drawing 133] was tested, and the inhibition in vivo at 0.5 mg/kg [1, 3] was 17.7 ± 1.2%, the inhibition in vivo at 0.5 mg/kg [1, 4] was 45.3 ± 2.4% and the inhibition in vivo at 0.5 mg/kg [1, 5] was 37 ± 8.6%.
CCCCOc1ccc(Cn2c(-c3ccccc3)nc(Cl)c2CC(=O)O)cc1 [drawing 136] gave an inhibition in vivo at 0.03 mg/kg [1, 3] of 17%, an inhibition in vivo at 3 mg/kg [1, 3] of 20% and an inhibition in vivo at 0.03 mg/kg [1, 4] of 46.5%. For the same compound, the inhibition in vivo at 3 mg/kg [1, 4] was 40%, the inhibition in vivo at 0.03 mg/kg [1, 5] was 40% and the inhibition in vivo at 3 mg/kg [1, 5] was 0%.
Compound CCCCc1nc(Cl)c(CC(=O)O)n1Cc1ccccc1Cl [n-C4 H9 / 2-Cl / H / H] has an inhibition at 0.1 µM ([2]; 10^-7 M drug substance) of 75%, an inhibition in vivo at 0.1 mg/kg [1, 6] of 38% and an inhibition in vivo at 0.1 mg/kg [1, 7] of 100%. It also gave an inhibition in vivo at 0.1 mg/kg [1, 8] of 86%.
With CCCCc1nc(Cl)c(CC(=O)O)n1Cc1ccccc1 [n-C4 H9 / H / H / H, 1-Benzyl-2-n-butyl-4-chloroimidazole-5-acetic acid] the inhibition at 1 µM ([2]; 10^-6 M drug substance, read-out: Inhibition) was 55%, the inhibition in vivo at 0.1 mg/kg [1, 6] was 19.6 ± 1.5% and the inhibition in vivo at 0.3 mg/kg [1, 9] was 25%. For the same compound, the inhibition in vivo at 0.1 mg/kg [1, 7] was 64.3 ± 15.3%, the inhibition in vivo at 0.3 mg/kg [1, 10] was 94% and the inhibition in vivo at 0.1 mg/kg [1, 8] was 60 ± 21.5%. The inhibition in vivo at 0.3 mg/kg [1, 11] was 94%.
O=C(O)Cc1c(Cl)nc(-c2cc([N+](=O)[O-])c(Cl)c([N+](=O)[O-])c2)n1Cc1ccccc1 [drawing 135] gave an inhibition in vivo at 0.1 mg/kg [1, 12] of 22.5 ± 3.2%, an inhibition in vivo at 0.3 mg/kg [1, 12] of 18% and an inhibition in vivo at 0.1 mg/kg [1, 13] of 55 ± 7.5%. For the same compound, the inhibition in vivo at 0.3 mg/kg [1, 13] was 72%, the inhibition in vivo at 0.1 mg/kg [1, 14] was 55 ± 7.5% and the inhibition in vivo at 0.3 mg/kg [1, 14] was 72%.
“A II: angiotensin II (hereinafter referred to briefly as "A II") (DRVYIHPF; Angiotensin-2; UniProt P01019 25-32, looked up) [reference compound]” was tested, and the “elevation of blood pressure after the infusion of A II, as compared with the one before the infusion” value ([1]; A II 20 ng/kg/min continuous intravenous infusion, 75 cases, no test drug) was 45.5±2.1 mmHg.
In the case of COc1ccc(Cn2c(-c3ccccc3)nc(Cl)c2CC(=O)O)cc1C [drawing 137], the inhibition in vivo at 0.5 mg/kg [1, 3] is reported as 33 ± 15%, the inhibition in vivo at 0.5 mg/kg [1, 4] is reported as 60 ± 18% and the inhibition in vivo at 0.5 mg/kg [1, 5] is reported as 62 ± 7%.
In the case of O=C(O)Cc1c(Cl)nc(-c2ccc(O)cc2)n1Cc1ccccc1 [drawing 132], the inhibition in vivo at 0.3 mg/kg [1, 9] is reported as 10.7 ± 1.8%, the inhibition in vivo at 0.5 mg/kg [1, 3] is reported as 14.8 ± 1.8% and the inhibition in vivo at 0.3 mg/kg [1, 10] is reported as 24.3 ± 2.3%. It also gave an inhibition in vivo at 0.5 mg/kg [1, 4] of 36 ± 3%, an inhibition in vivo at 0.3 mg/kg [1, 11] of 11.7 ± 6% and an inhibition in vivo at 0.5 mg/kg [1, 5] of 35 ± 3.9%.
